Experiments:
PDE7A = PDE7A (Homo sapiens, UniProt Q13946); experiment: 5FOA growth assay in fission yeast strain expressing PDE7A; assay type: cell-based; set-up: targets used in the assays are full-length proteins (as opposed to simply the catalytic domain); expressed in transfected cells; host or cells: Schizosaccharomyces pombe, PDE gene integrated in place of cgs2; conditions: for Composite Z score, PDE7A: high throughput 5FOA growth screen
Method in brief: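 Fission yeast carrying an fbp1-ura4 reporter were pregrown to exponential phase at 30 °C in EMM with 0–2.5 mM cAMP (or 0.5/1.0 mM cGMP), then moved into 5FOA medium with 100 nl pinned compound (10 mM stocks). Growth was read as OD600 after 48 h at 30 °C and scored as composite Z scores.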

[1] = test system: PDE4A, PDE4B, PDE4D, PDE7A, PDE7B, PDE8A, PDE3A; experiment: Summary of PDE inhibitor profile; set-up: key to PDE inhibitor profile (Table 17): (1): Strong PDE4A, PDE4B inhibitor; (2): Strong PDE4A inhibitor; (3): Strong PDE4B, moderate PDE4A inhibitor; (4): Moderate PDE4A, PDE4B inhibitor; (5): Moderate PDE4B inhibitor; key to inhibitor class, Table 15: (1): Strong PDE4A5 inhibitor; (2): Strong PDE4A, 4B inhibitor; Moderate PDE4D inhibitor; (3): Strong PDE4A. 4B inhibitor; (4): Strong PDE4A, 4B, PDE7A inhibitor: Weak PDE4D inhibitor; conditions: for PDE inhibitor profile (Table 17): overall classification, Table 17 footnotes

PDE7A, sequence (Q13946 whole entry, the tested form may be a part): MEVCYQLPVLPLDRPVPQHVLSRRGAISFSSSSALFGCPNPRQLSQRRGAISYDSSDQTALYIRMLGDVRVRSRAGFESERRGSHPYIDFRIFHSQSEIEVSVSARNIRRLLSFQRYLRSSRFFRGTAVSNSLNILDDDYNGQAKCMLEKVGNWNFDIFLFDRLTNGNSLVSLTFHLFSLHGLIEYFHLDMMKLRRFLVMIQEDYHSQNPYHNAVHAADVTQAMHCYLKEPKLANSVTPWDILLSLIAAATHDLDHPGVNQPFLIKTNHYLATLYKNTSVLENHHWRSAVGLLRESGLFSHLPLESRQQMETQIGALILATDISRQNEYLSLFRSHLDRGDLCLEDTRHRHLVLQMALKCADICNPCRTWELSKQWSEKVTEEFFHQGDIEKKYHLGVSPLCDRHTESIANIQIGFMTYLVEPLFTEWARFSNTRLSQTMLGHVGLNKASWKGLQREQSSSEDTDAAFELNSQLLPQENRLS

Row | SMILES | Composite Z score, PDE7A (PDE7A) | further results
1 | c1csc(CCNc2ncnc3sc4c(c23)CCC4)c1 [Compound 2005M12] | −0.398 | 
2 | Cc1c(C(=O)N(C)Cc2ccccc2)sc2ncnc(N3CCN(c4ccccc4)CC3)c12 [Compound 2041G21] | −1.371 | 
3 | O=C(/C=C/c1ccccc1)Nc1ncnc2sc3c(c12)CCC3 [Compound 2008K11] | 0.9074 | 
4 | CCOC(CNc1nc(C)nc2sc3c(c12)CCCC3)OCC [Compound 2040D04] | −0.593 | 
5 | CCNc1nc(SCC(=O)NC(=O)NCc2ccccc2)nc2sc3c(c12)CCN(C)C3 [Compound 2054N05] | 0.1836 | 
6 | COc1cc(OC)c(NC(=O)c2sc3ncnc(N4CCCCC4C)c3c2C)cc1Cl (centres unmarked) [Compound 2040J10] | 0.6002 | 
7 | COc1cccc(NC(=O)c2sc3ncnc(N4CCc5ccccc5C4)c3c2C)c1 [Compound 2041K21] | 0.4852 | 
8 | CCN(CC)c1ncnc2sc(C(=O)N(C)C3CCCCC3)c(C)c12 [Compound 2040J12] | −0.165 | 
9 | Cc1c(C(=O)Nc2ccc(F)cc2F)sc2ncnc(N(C)c3ccccc3)c12 [Compound 58-9] | 123.57 | 
10 | O=C(Nc1ncnc2sc3c(c12)CCCCC3)c1ccc(F)cc1 [Compound 2012F09] | 30.877 | 
11 | Cc1c(C(=O)NCCC(C)C)sc2ncnc(N3CCOCC3)c12 [Compound 2040F13] | −0.598 | 
12 | CCc1ccc2c(c1)c1nc3ccccc3nc1n2CC [2015, P06] |  | PDE inhibitor profile (Table 17) [1]: 2015, P06 (4); 1 Assay (20 uM) 7A (PDE7A; PDE 7A): 1.07 ND ND ND ND
13 | Cc1c(C(=O)NCCC2CCCCC2)sc2ncnc(N3CCCCC3C)c12 (centres unmarked) [Compound 2040H10] | 1.3549 | 
14 | Cc1cc(C)c(C)c(S(=O)(=O)N2CCN(c3ncnc4sc5c(c34)CCCC5)CC2)c1C [Compound 2012L13] | −0.684 | 
15 | COc1ccc(CCNc2ncnc3sc4c(c23)CCCC4)cc1 [Compound 2012B19] | 26.421 | 
16 | CCCCN(CC)C(=O)c1sc2ncnc(N3CCN(c4ccc(OC)cc4)CC3)c2c1C [Compound 2007H06] | 1.5462 | 
17 | CC1CC(=O)N(c2ncnc3sc4c(c23)CCCC4)N1 (centres unmarked) [2054 E16] | −0.737 | 
18 | OCCNc1ncnc2sc3c(c12)CCCC3 [Compound 2051H22] | −0.346 | 
19 | C=Cn1c2ccccc2c2nc3ccccc3nc21 [2033, H06] |  | PDE inhibitor profile (Table 17) [1]: 2033, H06 (4); 1 Assay (20 uM) 7A (PDE7A; PDE 7A): 0.63 ND ND ND ND
20 | Cc1c(C(=O)N2CCCCCC2)sc2ncnc(N3CCN(c4ccccc4)CC3)c12 [Compound 2041I21] | −0.933 | 
21 | COC(=O)C1=C(C)N(c2ccccc2)/C(=C/c2cccs2)C1=O [2008, K19] |  | inhibitor class, Table 15 [1]: 2008, K19 (1); 1 Assay (20 uM) 7A (PDE7A): 2.43 ND ND ND ND
22 | CCNc1nc(SCC(=O)OCC)nc2sc3c(c12)CCC(C)C3 (centres unmarked) [Compound 2053H16] | 0.7038 | 
23 | Cc1ccc2c(c1)c1nc3ccccc3nc1n2C(C)C [Compound 41] |  | PDE inhibitor profile (Table 17) [1]: 41 (1); 1 Assay (20 uM) 7A (PDE7A; PDE 7A): 0.31

Row | SMILES | Composite Z score, PDE7A (PDE7A) | further results
24 | c1nc(NCCCN2CCOCC2)c2c3c(sc2n1)CCCC3 [Compound 2051N22] | −0.445 | 
25 | CCN(CC)c1nc(C)nc2sc(C(=O)N3CCCCCC3)c(C)c12 [Compound 2040N12] | −1.037 | 
26 | CCOC(=O)c1sc2nc(C)nc(N3CCC(C)CC3)c2c1C [Compound 2007D06] | −0.759 | 
27 | CCN(CC)c1nc(C)nc2sc(C(=O)Nc3cc(Cl)ccc3OC)c(C)c12 [Compound 2040L12] | 0.6002 | 
28 | CCOC(=O)c1ccccc1NC(=O)c1sc2nc(C)nc(N(CC)CC)c2c1C [Compound 2040P12] | 1.3653 | 
29 | CCOC(=O)c1sc2nc(C)nc(N(C)Cc3ccccc3)c2c1C [Compound 2007L04] | 0.2354 | 
30 | COC(=O)C1=C(C)N(c2ccc(C(C)C)cc2)C(=O)/C1=C\c1ccco1 [2008, 019] |  | inhibitor class, Table 15 [1]: 2008, 019 (1); 1 Assay (20 uM) 7A (PDE7A): 2.78 ND ND ND ND
31 | Cc1nc(N2CCCCC2)c2c(C)c(C(=O)Nc3cccc(C(F)(F)F)c3)sc2n1 [Compound 2040F10] | −1.481 | 
32 | COc1ccc(NC(=O)c2sc3nc(C)nc(N(C)c4ccc(C(C)C)cc4)c3c2C)c(OC)c1 [Compound 2041I04] | 0.7201 | 
33 | COC(=O)C1/C(=C/c2cccc(OC)c2O)C(=O)N(c2ccccc2F)C1C (centres unmarked) [2008, C21] |  | inhibitor class, Table 15 [1]: 2008, C21 (2); 1 Assay (20 uM) 7A (PDE7A): −0.08 ND ND ND ND
34 | O=C(O)CCNc1ncnc2sc3c(c12)CCCC3 [Compound 2012O16] | 1.8846 | 
35 | c1ccc(CCn2c3ccccc3c3nc4ccccc4nc32)cc1 [2019, G03] |  | PDE inhibitor profile (Table 17) [1]: 2019, G03 (4); 1 Assay (20 uM) 7A (PDE7A; PDE 7A): 4.47 ND ND ND ND
36 | CC(C)CC(Nc1ncnc2sc3c(c12)CCC3)C(=O)O (centres unmarked) [Compound 2012H20] | −0.757 | 
37 | CNc1nc(=S)[nH]c2sc3c(c12)CCCC3 [2054 E08] | −0.995 | 
38 | C=CCn1c2ccc(Br)cc2c2nc3ccccc3nc21 [2017, C18] |  | PDE inhibitor profile (Table 17) [1]: 2017, C18 (4); 1 Assay (20 uM) 7A (PDE7A; PDE 7A): −1.58 ND ND ND ND
39 | CCCCn1c2ccccc2c2nc3ccccc3nc21 [2013, I20] |  | PDE inhibitor profile (Table 17) [1]: 2013, I20 (1); 1 Assay (20 uM) 7A (PDE7A; PDE 7A): −0.84 ND ND ND ND
40 | Cc1nc(NCCc2ccccc2)c2c3c(sc2n1)CCCC3 [Compound 2008G09] | 0.03 | 
41 | CCOC(=O)c1sc2nc(Cc3ccccc3)nc(NCCC3CCCCC3)c2c1C [Compound 2040F07] | 1.5898 | 
42 | CCNc1nc(SCc2ccc(Cl)cc2)nc2sc3c(c12)CCN(C)C3 [Compound 2054P05] | 1.181 | 
43 | CCC(C)NC(=O)c1sc2nc(C)nc(N(C)c3ccc(C(C)C)cc3)c2c1C (centres unmarked) [Compound 2041K04] | −1.377 | 
44 | CC(C)Cn1c2ccc(Br)cc2c2nc3ccccc3nc21 [2015, L04] |  | PDE inhibitor profile (Table 17) [1]: 2015, L04 (1); 1 Assay (20 uM) 7A (PDE7A; PDE 7A): −0.79 ND ND ND ND
45 | Cc1nc(N2CCC(C)CC2)c2c(C)c(C(=O)N3CCN(c4ccc(F)cc4)CC3)sc2n1 [Compound 2040N10] | 0.7021 | 
46 | COc1ccccc1CNC(=O)c1sc2ncnc(N3CCN(c4ccccc4F)CC3)c2c1C [2041 E21] | 0.5923 | 

From patent publication US20100227853A1, “INHIBITORS OF CYCLIC AMP PHOSPHODIESTERASES” (Trustees of Boston College, priority 2008, published 2010)
